Assay results from patent publication US9364462B2, “Alpha-1-adrenergic receptor agonist therapy” (The Regents of the University of California, priority 2012, dated 2016).

Experiments:
kinase ERK = assay: ERK activation in neonatal rat cardiac muscle cells in vitro; type: cell-based; conditions: FIG. 1
Source text: FIG. 1. A61603 protects neonatal cardiac muscle cells.

[1] = Traumatic brain injury (TBI) by cortical impact, MRI; type: in vivo, mouse; conditions: 4 weeks treatment, vs vehicle
Source text: FIG. 16. The alpha-1A agonist A61603 reduces the amount of brain damage after TBI, quantified by MRI. Mice had TBI by cortical impact, followed by 4 weeks treatment with A61603 or vehicle. MRI was done to identify viable brain (dark) and fluid-filled areas of lost brain tissue (bright) (left). The volume of dead brain was 50% less with A61603 (red, right).
To test this, we used a mouse model of traumatic brain injury (TBI), produced by a piston impact on the cerebral cortex, done through a hole in the skull. TBI is a clinical problem of great and growing importance.
We tested the model in the alpha-1A knockout (KO) mouse. TBI in the alpha-1A KO caused the worst damage, compared with normal mice and mice with the alpha-1B KO (FIG. 15). We tested A61603 in normal wild type mice, using the same low BP-neutral dose employed in the cardiac studies, 10 ng/kg/d. The protocol was a prevention trial, and the end-point was magnetic resonance imaging (MRI), which can quantify the amount of dead and viable brain tissue in the living subject (e.g. mouse, human) non-invasively. A61603 reduced the amount of dead brain tissue after TBI (FIG. 16).

ERK = ERK activation in adult mouse cardiac muscle cells; type: cell-based; conditions: low concentration, FIG. 3 left
Source text: FIG. 3. A61603 protects adult cardiac muscle cells. In adult mouse cardiac muscle cells, A61603 at a low concentration activates ERK (left), and protects against a cardiotoxic cancer drug, (DOX) (right). These effects are not blocked by a beta-blocker, propranolol (Prop), which is current standard of care in heart failure therapy. That is, A61603 effects are additive to those of a beta-blocker. Knockout of the alpha-1A receptor (AKO) eliminates myocyte protection by A61603 (right), showing that the drug does indeed work through the alpha-1A, as expected.

α1AR = conditions: Evans et al. (2011); cited from earlier work
[2] = Right ventricle cardiomyopathy in pulmonary hypertension (bleomycin) model; type: in vivo, mouse
Source text: FIG. 11. A61603 reduces right ventricle (RV) cardiomyopathy in pulmonary hypertension. Mice had bleomycin instilled into the trachea and treatment with A61603 or vehicle. […] Mice with the alpha-1A knocked out did worse (α1ABKO).
Studies in mice looking at alpha-1 agonist therapy, using A61603, in a model of right ventricular failure from pulmonary hypertension. Failure of the right ventricle (RV) is a serious consequence of HF due to disease of the left ventricle (LV), and is also seen as an isolated problem, e.g. in lung disease (e.g. lung fibrosis), where treatment is extremely limited. Experiments were conducted with A61603 therapy in a mouse model of RV cardiomyopathy caused by pulmonary hypertension, which in turn was caused by lung fibrosis. Installation of bleomycin into the lung, caused fibrosis and secondary pulmonary hypertension and RV failure. Mice were treated continuously with A61603 or vehicle.

[3] = 1 week subcutaneous infusion (osmotic minipump) in adult mice: BP and heart signaling; type: in vivo, mouse
Experimental: FIG. 5. A61603 activates heart signaling at a BP-neutral dose. A61603 was infused subcutaneously (osmotic minipump) for 1 week in adult mice, and BP was measured daily. There was no change in average BP at the low dose, in agreement with the intravenous (IV) route in another study, and with phenylephrine (PE) given in humans (left side). BP effects of A61603 are absent in the alpha-1A KO (AKO), again showing the selectivity of the drug for that receptor (left). At the end of 1 week, the heart was removed to measure ERK activation, and increases in heart mRNAs and area (size), reflecting protective (ERK) adaptive (mRNAs, area) effects on heart muscle cells. A61603 at the low dose of 10 ng/kg/d increased these endpoints.
The classic effect of alpha-1-agonists is to increase BP by stimulating smooth muscle cells to contract. It could be a disadvantage in heart failure (HF) therapy to increase BP excessively. On the other hand, all current recommended drugs in HF reduce BP, and a drug that increased BP slightly might have a strong therapeutic advantage. […] The foregoing experiments provided the rationale to test treatment with A61603 at 10 ng/kg/d in a mouse model of cardiomyopathy and HF.

Compound: CS(=O)(=O)Nc1c(O)ccc2c1CCCC2C1=NCCN1 (centres unmarked) [A61603, N-[1-(4,5-dihydro-1H-imidazol-2-yl)-6-hydroxy-tetralin-5-yl]methanesulfonamide]
- activation of the kinase ERK (kinase ERK): high efficacy and potency
- volume of dead brain, less with A61603 [1]: 50%
- ERK activation (ERK): activates ERK
- cAMP accumulation through α1AR relative to cirazoline (α1AR): stronger stimulator
- RV failure (RV weight normalized to body weight) ([2]; bleomycin into trachea, A61603 vs vehicle): reduced or prevented RV failure
- function of RV muscle taken from treated mice, studied in vitro ([2]; bleomycin model): better function
- heart ERK activation ([3]; 10 ng/kg/d, end of 1 week): increased
- heart area (size) ([3]; 10 ng/kg/d, end of 1 week): increased
- heart mRNAs ([3]; 10 ng/kg/d, end of 1 week): increased
- BP effects in alpha-1A KO (AKO) ([3]; alpha-1A KO mice, subcutaneous infusion 1 week): absent
- average BP ([3]; low dose, subcutaneous infusion 1 week, BP measured daily): no change
